Reference: patent US5266576A, “N-myristoyl transferase inhibitors” (Adir et Compagnie, priority 1991, dated 1993)
Read-outs that look alike come from different tables or passages of the source.

Legend:
[1] = target: T1, cytosolic NMT (N-myristoyltransferase) of L1210 cells (Mus musculus, UniProt O70310); test: Inhibition of the cytosolic NMT activity of cancerous L1210 cells; type: biochemical, murine
T1 construct: The supernatant is then used as a source of NMT; endogenous in cells; host or cells: L1210 murine leukemia cells, cytosol (105,000 g supernatant)
T1 sequence (O70310 1-496): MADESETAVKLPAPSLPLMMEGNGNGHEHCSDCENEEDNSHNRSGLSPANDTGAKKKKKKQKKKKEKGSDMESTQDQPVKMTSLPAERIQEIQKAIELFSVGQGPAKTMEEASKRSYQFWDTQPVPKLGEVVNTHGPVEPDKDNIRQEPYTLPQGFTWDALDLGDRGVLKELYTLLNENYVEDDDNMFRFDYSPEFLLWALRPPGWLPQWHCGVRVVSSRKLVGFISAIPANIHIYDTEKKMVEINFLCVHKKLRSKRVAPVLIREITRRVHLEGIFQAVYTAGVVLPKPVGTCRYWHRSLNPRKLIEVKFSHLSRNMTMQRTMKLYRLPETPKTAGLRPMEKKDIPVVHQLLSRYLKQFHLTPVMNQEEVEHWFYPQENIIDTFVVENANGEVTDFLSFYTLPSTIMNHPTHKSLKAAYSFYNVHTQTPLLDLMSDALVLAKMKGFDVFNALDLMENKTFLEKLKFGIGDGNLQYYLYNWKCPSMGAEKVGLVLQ
Description: Mass-cultured L1210 cells (murine leukemia) are used as a source of […].
They are cultured in RPMI 1640 supplemented with 50 U/ml of penicillin, […] of streptomycin, 2 mM of glutamine, 10 mM HEPES and 10% of fetal calf serum, maintained in a 5% CO2 /95% air atmosphere and at 37° C.
They are harvested and then washed in PBS by centrifuging at low speed. The final cell pellet is resuspended in a 50 mM HEPES buffer, pH 7.4, containing 2 mM EGTA, 1 mM DTT and 1 mM PMSF. The cells are opened by sonication at 4° C. and homogenized by a to and fro movement in a glass/glass Potter. The cell homogenate is then centrifuged at low speed (10,000 rpm, 10 minutes) in order to precipitate the cell debris and the supernatant is subjected to ultracentrifugation at 105,000 g for 1 hour.
The supernatant is then used as a source of NMT. The measurement of activity is carried out according to the method described by Towler and Glazer (PNAS, 1986, 83, 2812) using as substrate peptide either the peptide derived from the NH2 terminal of the pp60src oncogene product: GSSKSKPKDP (DP), or the peptide derived from the NH2 terminal of the gag product, a structural protein of the Maloney murine leucemic virus: GQTVTTPL (T3) at a final concentration of 0.3 mM.

[2] = tested on: HL60 cells; test: Differentiation of cultured HL60 cells; type: cell-based, human
Description: Cultured HL60 cells are treated for 6 days with the compounds dissolved in a minimum of methanol at 9 different concentrations. The doses chosen encompass the IC50 determined beforehand using the MTT test (Carmichael et al., Cancer Res., 1986, 47, 936).
The cells are washed (450 μl), resuspended in the same volume of complete medium and incubated for 1 hour at 37° C. in the presence of 7 ug/ml of DNA-specific fluorochrome.
The measurements, which are carried out by means of a laser cytometer, make it possible to estimate the percentage of cells accumulated, and therefore differentiated, in the G0 and G1 phase of the cell cycle.

[3] = target: T2, microsomal NMT of CEM cells (Homo sapiens, UniProt P30419); test: Inhibition of the myristoylation of a gag-derived peptide of HIV-1 (subtype BRU), microsomal fraction of CEM cells; type: biochemical; conditions: 20-AA p18 peptide of HIV-1 (subtype BRU), 30 minutes at 37° C., read-out: IC50 during incubation with the microsomal fraction
T2 construct: The pellet (microsomes) and the supernatant (cytosol) are recovered independently and then frozen; endogenous in cells; host or cells: CEM immortalized T lymphocytes, microsomal pellet (105,000 g), treated with Triton 770
T2 sequence (P30419 1-496): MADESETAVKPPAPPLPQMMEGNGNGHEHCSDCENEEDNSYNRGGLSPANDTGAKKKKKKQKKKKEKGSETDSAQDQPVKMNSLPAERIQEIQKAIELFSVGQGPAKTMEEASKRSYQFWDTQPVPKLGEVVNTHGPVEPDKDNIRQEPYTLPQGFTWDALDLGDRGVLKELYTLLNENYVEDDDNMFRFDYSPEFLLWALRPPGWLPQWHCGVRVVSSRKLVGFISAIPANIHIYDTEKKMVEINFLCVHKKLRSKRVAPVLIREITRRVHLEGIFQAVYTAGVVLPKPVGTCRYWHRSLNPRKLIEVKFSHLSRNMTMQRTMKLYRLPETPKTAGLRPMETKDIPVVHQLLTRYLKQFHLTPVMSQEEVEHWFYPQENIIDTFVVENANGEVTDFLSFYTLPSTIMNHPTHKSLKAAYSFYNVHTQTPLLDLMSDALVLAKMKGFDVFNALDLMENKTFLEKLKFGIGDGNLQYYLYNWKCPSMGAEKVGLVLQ
Description: Immortalized T lymphocytes (CEM) are mass- cultured as described in Example 57, and then harvested by centrifugation and washed in PBS.
These cells are sonicated (3 brief periods of 10 seconds) and then homogenized in a glass/glass Potter.
This homogenate, in which all the cells have been opened (checked under a microscope), is subjected to centrifugation for 1 h 10) at 105,000 g. The pellet (microsomes) and the supernatant (cytosol) are recovered independently and then frozen.
The NMT activity is then measured following the procedure of Towler and Glaser but stopping the reaction with […] of acetonitrile in order to avoid precipitation of the myristoylated peptide. This 20-AA peptide: NH2^[…] COOH, is derived from p18 of the HIV-1 virus (subtype BRU).
These experimentations are carried out using a cytosolic (40 μl) or microsomal (20 μl treated with 4 μl of 10% Triton 770) source of CEM cells in the presence of increasing concentrations of the compounds of the invention (1 to 1,000 μM, final). The samples, incubated for 30 minutes at 37° C. and stopped with 200 μl of acetonitrile, are then analyzed by HPLC and the myristoylation of p18 quantified.

[4] = Toxicity on CEM cells in the HIV protection test; type: cell-based; conditions: human, method of WEISLOW et al., unit printed m, read-out: toxicity (IC50)
Description: The method used is described by WEISLOW et al. (J. Natl. Cancer Inst., 1989, 81, 577).

[5] = tested on: HIV-1 virus; test: Protective effect on CEM cells against infection by the HIV virus; type: cell-based
Description: The method used is described by […] et al. (J. Natl. Cancer Inst., 1989, 81, 577).

[6] = HL60 cells, 6 days, cells accumulated in G0 and G1 phase, laser cytometer

| IC50 ([1]; cytosolic NMT of L1210 cells, substrate peptide DP (pp60src) or T3 (gag), 0.3 mM, read-out: IC50) | IC50 [3] | EC50 ([5]; Human immunodeficiency virus 1, CCRF-CEM, HIV infection, method of WEISLOW et al.) | Structure (SMILES) | doses to which the marked differentiating effect can extend [2, 6] | IC50 [1] | doses to which the marked differentiating effect can extend ([2]; 144 h) | CC50 [4] | therapeutic index ([5]; toxicity IC50 / protective EC50) |
| --- | --- | --- | --- | --- | --- | --- | --- | --- |
| 0.18 µM | 100 µM |  | CCCCCCCCCCCCCC(=O)N1Cc2ccccc2C[C@H]1C(=O)O [Example 1, N-Myristoyl-3-(S)-carboxy-(1,2,3,4)-tetrahydroisoquinoline] | below 50 ug/ml |  |  |  |  |
|  |  |  | CCCCCCCCCCCCCC(=O)NC(Cc1ccccc1)P(=O)(O)OCC (stereo not drawn) [Example 16, ETHYL 1-MYRISTOYLAMINO-2-[…]] |  | 2 µM | below 50 ug/ml |  |  |
|  |  | 10 µM | COCCCCCCCCCCCC(=O)N[C@@H](Cc1ccccc1)C(=O)O [Example 49, N-(12-METHOXYLAUROYL)-(S)-PHENYLALANINE] | below 50 ug/ml |  |  | 200 µM | 20 |
